Data: patent publication US6384052B1, “Anticoccidial compounds” (Merck & Co., Inc., priority 1999, dated 2002)

Tests used:
[1] = Toxicity Evaluation (38-day medicated diet, liver necrosis and urate crystal deposition); format: in vivo, male broiler chickens; settings: 125 ppm in diet; for chickens with urate crystal deposition in the kidneys: affected/examined
Procedure: (§1) Compound of the present invention and 2-(4-fluorophenyl)-5-(N-methylpiperidin-4-yl)-3-(4-pyridyl)pyrrole were evaluated in anticoccidiosis assay and toxicology studies. In these studies, medicated diets were prepared by dissolving the proper quantity of the test compound in dimethylsulfoxide or acetone, mixing the resultant solution into a few grams of the basal diet, and then placing the mixture under a fume hood for dehydration. The dry mixture is made into a uniform premix with an electric grinder, and then blended with the desired quantity of basal diet for the final formulation in a commercial bowl mixer.
Day-old male broiler chickens are received on Day 0 of the trial, weighed, wingbanded, and placed on medicated or control diet in standard battery cages. Three treatments are used in the study: (A) medicated diet containing 125 ppm of 2-(4-fluorophenyl)-5-(N-methylpiperidin-4-yl)-3-(4-pyridyl)pyrrole; (B) medicated diet containing 125 ppm of 2-(4-fluorophenyl)-5-(N-ethylpiperidin-4-yl)-3-(4-pyridyl)pyrrole; and (C) no medication. A total of 48 chickens are utilized per treatment. Of these, 12 birds (2 replicates of 6) are examined on D7, D14, D24 and D38 for liver necrosis and urate crystal deposition. Growth rates, feed efficiency and plasma levels are determined for background information. The trial is terminated on D38.

[2] = Acute Toxicity Evaluation (intraperitoneal, twice a day for three days); format: in vivo; settings: 100 mg/kg/day intraperitoneally, necropsy on day 4, two chickens per group
Procedure: For acute toxicity evaluation, chickens are dosed intraperitoneally twice a day at desired dose for three days. On day 4 birds are necropsied and examined for gross lesions and weight suppression. Two chickens are used in each treatment group.

[3] = tested on: Eimeria acervulina, E. tenella; assay: Anticoccidiosis assay (oocyst production in infected chickens on medicated diet); format: in vivo, White Leghorn chickens; parameters: key: at least 80% reduction in oocyst production are considered active; those with 50-79% are considered partially active; those with <50% are considered inactive; settings: 100 ppm in diet; chickens infected with E. acervulina or E. tenella
Procedure: as §1
One-day-old White Leghorn chickens are obtained from a commercial hatchery and acclimated in a holding room. At three days of age the test animals are selected by weight, wingbanded, and randomly placed on medicated or control diets for the duration of the experiment. One or two replicates of two birds are utilized per treatment. Following 24 h premedication, in each replicate one bird is infected with Eimeria acervulina, the other bird is infected with E. tenella. Both strains of Eimeria are sensitive to all anticoccidial products, and have been maintained in laboratory conditions for over 25 years. […] The measured parameters are weight gain, feed consumption and oocyst production. E. tenella lesion scores are also recorded for background information. […]

| Compound | chickens showing liver necrosis or urate crystal deposition ([1]; 12 birds examined on each of D7, D14, D24 and D38) | liver necrosis / gross liver lesions at necropsy [2] | anticoccidial activity (reduction in oocyst production) [3] | chickens with urate crystal deposition in the kidneys ([1]; examined on D14) | chickens with urate crystal deposition in the kidneys ([1]; examined on D38) |
| --- | --- | --- | --- | --- | --- |
| CCN1CCC(c2cc(-c3ccncc3)c(-c3ccc(F)cc3)[nH]2)CC1 [2-(4-fluorophenyl)-5-(N-ethylpiperidin-4-yl)-3-(4-pyridyl)pyrrole] | None | none | active | – | – |
| CN1CCC(c2cc(-c3ccncc3)c(-c3ccc(F)cc3)[nH]2)CC1 [2-(4-fluorophenyl)-5-(N-methylpiperidin-4-yl)-3-(4-pyridyl)pyrrole] | – | demonstrated gross liver lesions | active | 3/12 | 4/12 |
